Laboratory results reported in patent EP4781993A1, “ANTIBACTERIAL COMPOSITION AND ANTIBACTERIAL DRUG” (Shenzhen China Resources Gosun Pharmaceuticals Co., Ltd., priority 2023, dated 2025).
Structures can show the parent of a compound that is named as a salt.

Columns and labels:
[1] = tested on: KPC-2 producing Klebsiella pneumoniae; test: Broth-microdilution MIC (CLSI M07-A11) against clinical isolates; format: cell-based; set-up: Drug concentration: unit: mg/L; settings: for Mode: mode of MIC; for Drug concentration: unit not given in Table 3
From the text: (§1) As recommended by CLSI (Clinical and Laboratory Standards Institute) M07-A11 (2018 edition), the Broth-microdilution method is adopted to determine the minimum inhibitory concentration (MIC) of ceftobiprole and zidebactam against clinical isolates. It should be noted that, in the present disclosure, MIC50 refers to the minimum drug concentration that inhibits the growth of 50% of the tested bacteria, and MIC90 refers to the minimum drug concentration that inhibits the growth of 90% of the tested bacteria.
(§2) Antibacterial drug: ceftobiprole, manufacturer: Shenyang Sanjiu Pharmaceutical, content: 92.1%, batch number: YF/BALP141/000. Zidebactam, manufacturer: Target M01 company, batch number: 149661. Zidebactam, as described above, the English name is Zidebactam, and the chemical name is: (2S,5R)-7-oxo-2-(2-((R)-piperidine-3-carbonyl)hydrazine-1-carbonyl)-1,6-diazabicyclo[3.2.1]octan-6-yl hydrogen sulfate.
(§3) Tested strains: a total of 24 genotypic strains producing KPC or OXA β-lactamase. Specifically, the tested strains include 24 strains of Klebsiella pneumoniae, including 12 KPC-2 producing strains and 12 OXA-232 producing strains.
(§4) Quality control strains: Escherichia coli ATCC 25922, (KPC-2 producing) Klebsiella pneumoniae ATCC BAA-1705, and (NDM-1 producing) Klebsiella pneumoniae ATCC BAA-2146.
(§5) Medium: cation-adjusted Mueller-Hinton broth (CAMHB), a product of BBL Company, USA.
(§6) Inoculum size: Pure isolated colonies were adjusted with normal saline to 0.5 McFarland turbidity. After appropriate dilution, the suspension was added to the wells of a 96-well U-bottom microplate (containing 50 µL antibacterial drug solution). The inoculum size was 5 × 10^5 CFU/mL.
(§7) Culture conditions: air environment, 35°C ± 2°C, 16 to 20 hours.
(§8) Preparation of Antibacterial Drug Solution : Ceftobiprole and zidebactam were taken separately, dissolution and dilution were performed according to the antibacterial drug reference to the CLSI standards and the drug package insert, A1 to A6, a total of 6 groups of antibacterial drug solutions, were prepared, among which, group A1 was the control group containing solely the single agent ceftobiprole, and group A2 was the control group containing solely the single agent zidebactam. Different antibacterial drug solutions with ceftobiprole concentrations ranging from 128 mg/L to 0.06 mg/L were respectively included in groups A1 and A3 to A6, and different antibacterial drug solutions with zidebactam concentrations ranging from 128 mg/L to 0.06 mg/L were included in group A2. The specific concentrations within the range of 128 mg/L to 0.06 mg/L in groups A1 to A6 were respectively 128 mg/L, 64 mg/L, 32 mg/L, 16 mg/L, 8 mg/L, 4 mg/L, 2 mg/L, 1 mg/L, 0.5 mg/L, 0.25 mg/L, 0.125 mg/L, or 0.06 mg/L, respectively. Table 1. Concentrations of ceftobiprole/zidebactam contained in the antibacterial drug solutions of groups A1 to A6
(§9) Experimental results: Currently, there are no established CLSI or EUCAST breakpoints for ceftobiprole/β-lactamase inhibitor. Therefore, the antibacterial activity of ceftobiprole/β-lactamase inhibitor is evaluated in accordance with the standards for ceftobiprole. WHONET 5.6 software is used to perform statistical analysis on the results of antibacterial susceptibility test. The fractional inhibitory concentration index (FIC) for the combination of ceftobiprole and zidebactam is calculated according to Equation (1). FIC index = (MIC of drug A in combination)/(MIC of drug A alone) + (MIC of drug B in combination)/(MIC of drug B alone) [formula]
(§10) In Equation (1), drug A is ceftobiprole, and drug B is zidebactam. […] Table 2. In vitro antibacterial activity of ceftobiprole/zidebactam against the tested bacteria in Example 1 […]

[2] = tested on: OXA-232 producing Klebsiella pneumoniae; test: as above; format: cell-based; set-up: Drug concentration: unit: mg/L; settings: for Mode: mode of MIC; for Drug concentration: unit not given in Table 3
From the text: as §1, §2, §3, §4, §5, §6, §7, §8, §9, §10

[3] = 12 strains, MIC = ceftobiprole concentration (groups A2, B2, C2, D2, E2: inhibitor alone)
[4] = Klebsiella pneumoniae, 12 strains, MIC = ceftobiprole concentration (groups A2, B2, C2, D2, E2: inhibitor alone)

Molecule: (3R,6S)-2-hydroxy-3-[[2-(2-thienyl)acetyl]amino]-1,2-oxaborinane-6-acetic acid [Group B2]
- MIC range [1, 3]: >128 µg/mL
- Cumulative inhibition rate (%) ([1]; MIC >128 mg/L): 100%
- Cumulative number of strains ([1]; MIC >128 mg/L): 12
- Number of strains ([1]; MIC >128 mg/L): 12
- Mode ([1]; 12 strains): >128 mg/L
- antibacterial activity ([1]; verdict in words): no antibacterial activity
- MIC range [2, 3]: >128 µg/mL
- Cumulative inhibition rate (%) ([2]; MIC >128 mg/L): 100%
- Cumulative number of strains ([2]; MIC >128 mg/L): 12
- Number of strains ([2]; MIC >128 mg/L): 12
- Mode ([2]; 12 strains): >128 mg/L
- antibacterial activity ([2]; verdict in words): no antibacterial activity

Molecule: O=C(NNC(=O)[C@@H]1CC[C@@H]2CN1C(=O)N2OS(=O)(=O)O)[C@@H]1CCCNC1 [Group A2, (2S,5R)-7-oxo-2-(2-((R)-piperidine-3-carbonyl)hydrazine-1-carbonyl)-1,6-diazabicyclo[3.2.1]octan-6-yl hydrogen sulfate]
- MIC50 ([1]; Klebsiella pneumoniae, 12 strains, MIC = ceftobiprole concentration (groups A2, B2, C2, D2, E2: inhibitor alone), read-out: MIC50): > 128 µg/mL
- MIC90 ([1]; Klebsiella pneumoniae, 12 strains, MIC = ceftobiprole concentration (groups A2, B2, C2, D2, E2: inhibitor alone), read-out: MIC90): > 128 µg/mL
- Cumulative inhibition rate (%) ([1]; MIC 1 mg/L): 8.3%
- Cumulative number of strains ([1]; MIC 1 mg/L): 1
- Number of strains ([1]; MIC 1 mg/L): 1
- Cumulative inhibition rate (%) ([1]; MIC 128 mg/L): 41.7%
- Cumulative number of strains ([1]; MIC 128 mg/L): 5
- Number of strains ([1]; MIC 128 mg/L): 4
- Cumulative inhibition rate (%) ([1]; MIC >128 mg/L): 100%
- Cumulative number of strains ([1]; MIC >128 mg/L): 12
- Number of strains ([1]; MIC >128 mg/L): 7
- Mode ([1]; 12 strains): >128 mg/L
- Drug concentration ([1]; strain 18-W09-043 (kpn, KPC-2)): >128
- Drug concentration ([1]; strain 18-W09-045 (kpn, KPC-2)): >128
- Drug concentration ([1]; strain 18-W09-046 (kpn, KPC-2)): 128
- Drug concentration ([1]; strain 18-W09-047 (kpn, KPC-2)): 128
- Drug concentration ([1]; strain 18-W09-049 (kpn, KPC-2)): >128
- Drug concentration ([1]; strain 18-W09-050 (kpn, KPC-2)): 128
- Drug concentration ([1]; strain 18-W09-051 (kpn, KPC-2)): >128
- Drug concentration ([1]; strain 18-W13-043 (kpn, KPC-2)): >128
- Drug concentration ([1]; strain 18-W13-044 (kpn, KPC-2)): >128
- Drug concentration ([1]; strain 18-W13-045 (kpn, KPC-2)): 128
- Drug concentration ([1]; strain 18-W13-046 (kpn, KPC-2)): >128
- Drug concentration ([1]; strain 18-W13-047 (kpn, KPC-2)): 1
- MIC50 [2, 4]: 64 µg/mL
- MIC90 [2, 4]: > 128 µg/mL
- Cumulative inhibition rate (%) ([2]; MIC 1 mg/L): 8.3%
- Cumulative number of strains ([2]; MIC 1 mg/L): 1
- Number of strains ([2]; MIC 1 mg/L): 1
- Cumulative inhibition rate (%) ([2]; MIC 2 mg/L): 16.7%
- Cumulative number of strains ([2]; MIC 2 mg/L): 2
- Number of strains ([2]; MIC 2 mg/L): 1
- Cumulative inhibition rate (%) ([2]; MIC 4 mg/L): 33.3%
- Cumulative number of strains ([2]; MIC 4 mg/L): 4
- Number of strains ([2]; MIC 4 mg/L): 2
- Cumulative inhibition rate (%) ([2]; MIC 8 mg/L): 41.7%
- Cumulative number of strains ([2]; MIC 8 mg/L): 5
- Number of strains ([2]; MIC 8 mg/L): 1
- Cumulative inhibition rate (%) ([2]; MIC 64 mg/L): 50%
- Cumulative number of strains ([2]; MIC 64 mg/L): 6
- Number of strains ([2]; MIC 64 mg/L): 1
- Cumulative inhibition rate (%) ([2]; MIC 128 mg/L): 66.7%
- Cumulative number of strains ([2]; MIC 128 mg/L): 8
- Number of strains ([2]; MIC 128 mg/L): 2
- Cumulative inhibition rate (%) ([2]; MIC >128 mg/L): 100%
- Cumulative number of strains ([2]; MIC >128 mg/L): 12
- Number of strains ([2]; MIC >128 mg/L): 4
- Mode ([2]; 12 strains): >128 mg/L
- Drug concentration ([2]; strain 20-W4-001 (kpn, OXA-232)): >128
- Drug concentration ([2]; strain 20-W4-002 (kpn, OXA-232)): >128
- Drug concentration ([2]; strain 20-W4-003 (kpn, OXA-232)): 4
- Drug concentration ([2]; strain 20-W4-004 (kpn, OXA-232)): >128
- Drug concentration ([2]; strain 20-W4-005 (kpn, OXA-232)): 128
- Drug concentration ([2]; strain 20-W4-007 (kpn, OXA-232)): 2
- Drug concentration ([2]; strain 20-W4-008 (kpn, OXA-232)): 64
- Drug concentration ([2]; strain 20-W4-009 (kpn, OXA-232)): 128
- Drug concentration ([2]; strain 20-W4-010 (kpn, OXA-232)): 1
- Drug concentration ([2]; strain 20-W4-011 (kpn, OXA-232)): 8
- Drug concentration ([2]; strain 20-W4-012 (kpn, OXA-232)): >128
- Drug concentration ([2]; strain 20-W4-013 (kpn, OXA-232)): 4
